Measurements from patent EP1344834A2, “Methods for the toxicity prediction of a compound” (F. HOFFMANN-LA ROCHE AG, priority 2002, dated 2003).
Like-named read-outs stand apart in the source and are kept apart here.

Assays:
[1] = system: expression profile in liver; test: Support Vector Machine classification of liver expression profiles; details: compounds not present in the initial training set; expression profiles of individual animals; Figures 8 and 9
Method: Adult male Wistar rats were dosed in vivo and the resulting expression profile in liver was determined. SVMs were built for the discrimination between 3 different classes of hepatotoxicants, non-toxic substances and controls. The training set consisted of 180 gene expression profiles from individual animals treated with direct acting, cholestatic, steatotic, non-toxic compounds and corresponding vehicle-dosed controls. As a first step the chips were rescaled to a median value of 0 and a standard deviation of 1. […] Multi-class classification for a given test chip was then carried out by combining the outputs of all binary. classifiers. A leave-one-out cross validation procedure was applied to assess the quality of the trained machines with respect to the training data. […] By removing all replicates of one compound from the training data, followed by classifying these chips with the resulting decision function, the individual contribution of the given compound for a successful classifier could be examined. RFE was used to investigate the relationship between the number of genes for generating the classifiers, the resulting prediction accuracy, cross-validation errors and the number of used support vectors. The first iteration reduced the gene count to a multiple of 2. In each subsequent iteration the gene count was halved until 32 genes remained. […]

Gadd45 = test: Quantitative RT-PCR of GADD-family genes in liver after in vivo dosing; parameters: species or system Wistar rats; details: control = 1.0
Method: (§1) The quality of RNA was assessed with gel electrophoresis.
(§2) The induction of these genes correlates with the histopathological findings in a time related fashion: While PEG-3 seems to be an early marker, GADD-45 and […] appear regulated at later time points, when the tissue damage is obvious by conventional endpoints.

PEG3 = test: as above; parameters: species or system Wistar rats; details: control = 1.0
Method: as §1, §2

Gadd153 = test: as above; parameters: species or system Wistar rats; details: control = 1.0
Method: as §1, §2

[2] = system: genes from the GADD family; test: RT-PCR confirmation of induction of GADD family genes by direct acting compounds; format: in vivo, Wistar rats; details: rat liver (summary of Table 9)
Method: as §1, §2

EGR-1 = test: Quantitative RT-PCR of EGR-1 in liver after in vivo dosing; parameters: species or system rats; details: every 12 Hours, sacrificed 3 hours after the last administration, control = 1.0
Method: as §1
(§3) Tolcapone (Tasmar) is a human hepatotoxin with no known toxicity in the rat.

EGR1 = test: Gene expression analysis (GeneChip) of EGR1 after exposure of rats; format: in vivo; details: high inter-individual variability
Method: as §1, §3

CYP2B2 [3] = details: rat, in vivo
Method: (§4) Male Wistar rats (generally 5 animals/dose-group) were purchased from BRL (Fullingsdorf, Switzerland) and housed individually. Treated animals were dosed either orally, intraperitoneally, or intravenously with several doses of test compounds (Table 1). The test compounds were categorized according to their toxic manifestation in the rat liver. Control animals received the same volume of vehicle as placebo. Necropsy was performed 6 or 24 hours after a single administration and liver samples from the left medial lobe were placed immediately in RNALater (Ambion, TX, USA) for RNA extraction and gene expression analysis. Samples in RNALater were stored at -20°C until further processing.
(§5) RNA isolation from hepatocytes was typically performed by resuspending approximately 3 Mio. Cells/1.2 mL RNAzol (Tel-Test Inc., TX, USA). […] Total RNA was isolated according to the manufacturer's instruction and quantified by measuring the optical density at 280 nm. The quality of RNA was assessed with gel electrophoresis.
(§6) The regulation of the mRNA levels of several candidate genes (Table 4) was verified with quantitative RT-PCR. […] For each performed RT-PCR reaction, the specificity of the assay was evaluated with dissociation curve software (Applied Biosystems), as well as by assessment of the size of the product using either gel electrophoresis or Agilent Bioanalyzer. […]

marker genes [4] = details: rat, in vivo
Method: as §4, §5, §6

CYP2B2 [5] = details: rat, in vivo; remark: listed apart in the source
Method: as §4
(§7) RNA isolation from hepatocytes was typically performed by resuspending approximately 3 Mio. Cells/1.2 mL RNAzol (Tel-Test Inc., TX, USA). […] Total RNA was isolated according to the manufacturer's instruction and quantified by measuring the optical density at 280 nm. The quality of RNA was assessed with gel electrophoresis. […]
(§8) After hybridization and scanning, the expression level of each gene was calculated by subtracting the fluorescence intensity of the mismatch probes from the match signal (=average difference) using the [sequence] […] Gene expression data were further analyzed with an in-house-developed data analysis tool (RACE-A, Hoffmann-La Roche, Basel, Switzerland). […]

AH-R [6] = details: rat, in vivo
Method: as §4, §5, §6

PC3 (BTG2) = details: rat, in vivo
Method: as §4, §7, §8

AH-R [7] = details: rat, in vivo; remark: listed apart in the source
Method: as §4, §7, §8

marker genes [8] = test: RT-PCR of marker genes, differentiation of toxic and non-toxic 5-HT6 receptor antagonists (Fig. 10); details: rat liver, some of the selected genes
Method: as §4, §5, §6

CYP2B = test: Western-blot of liver extracts with antibody specific for CYP2B; format: in vivo, rat
Method: In addition, Western blots were performed using specific antibodies against the cytochrome P450 CYP2B family in order to evaluate if the clear induction of messenger RNA also led to an increase in the hepatic protein levels. […] This is due to the time lag between protein and mRNA induction (Fig. 11).

[9] = 4500 mmol/kg, sampling time 2 hours
[10] = 4500 mmol/kg, sampling time 6 hours
[11] = 4500 mmol/kg, sampling time 24 hours
[12] = 10 mg/kg, sampling time 2 hours
[13] = 10 mg/kg, sampling time 6 hours
[14] = 10 mg/kg, sampling time 24 hours
[15] = 60 mg/kg, sampling time 2 hours
[16] = 60 mg/kg, sampling time 6 hours
[17] = 60 mg/kg, sampling time 24 hours
[18] = 2 mg/kg, sampling time 24 hours
[19] = 50 mg/kg, sampling time 6 hours

Which “classification by support vector machines (identification of compound class)” value [1] does the source give for `Clc1ccccc1Cl` [1,2-dichlorobenzene] here?
The value was “direct acting compound”.

And the “PCR Gadd45” value (Gadd45; [9])?
Its value is 2.3 fold induction.

What about the “PCR Gadd45” value (Gadd45; [10]) of the same molecule?
The value was 4.9 fold induction.

And the “PCR Gadd45” value (Gadd45; [11])?
Its value is 53.0 fold induction.

And the “PCR PEG3” value (PEG3; sampling time 2 hours)?
The value was 3.9 fold induction.

And the “PCR PEG3” value (PEG3; sampling time 6 hours)?
The value was 1.9 fold induction.

And the “PCR PEG3” value (PEG3; sampling time 24 hours)?
The value was 54.6 fold induction.

And the “PCR Gadd153” value (Gadd153; sampling time 2 hours)?
The value was 0.9 fold induction.

And the “PCR Gadd153” value (Gadd153; sampling time 6 hours)?
The value was 0.6 fold induction.

And the “PCR Gadd153” value (Gadd153; sampling time 24 hours)?
The value was 27.9 fold induction.

And the “induction of genes from the GADD family, namely GADD-45, GADD-153 and PEG-3” value [2]?
The value was “induction”.

`Clc1ccc(Cl)cc1` [1,4-dichlorobenzene] was tested. Which “PCR Gadd45” value (Gadd45; [9]) did it give?
The value was 1.7 fold induction.

And the “PCR Gadd45” value (Gadd45; [10])?
The value was 0.8 fold induction.

What about the “PCR Gadd45” value (Gadd45; [11]) of the same molecule?
Its value is 7.2 fold induction.

And the “PCR PEG3” value (PEG3; sampling time 2 hours)?
Its value is 0.8 fold induction.

And the “PCR PEG3” value (PEG3; sampling time 6 hours)?
The value was 0.7 fold induction.

What about the “PCR PEG3” value (PEG3; sampling time 24 hours) of the same molecule?
The value was 4.2 fold induction.

What about the “PCR Gadd153” value (Gadd153; sampling time 2 hours) of the same molecule?
Its value is 1.0 fold induction.

And the “PCR Gadd153” value (Gadd153; sampling time 6 hours)?
The value was 0.9 fold induction.

And the “PCR Gadd153” value (Gadd153; sampling time 24 hours)?
The value was 2.4 fold induction.

With `O=[N+]([O-])c1ccc(O)c([N+](=O)[O-])c1` [Dinitrophenol] as the molecule, how does the “PCR EGR-1” value (EGR-1; 10 mg/kg administered three times) read?
The value was 3.4 fold induction.

And the “PCR EGR-1” value (EGR-1; 30 mg/kg administered three times)?
The value was 8.5 fold induction.

And the “induction of EGR1” value (EGR1; 10 and 30 mg/kg)?
Its value is “slight induction”.

`CCN(CC)C(=O)/C(C#N)=C/c1cc(O)c(O)c([N+](=O)[O-])c1` [Entacapone] was tested. Which “PCR EGR-1” value (EGR-1; 600 mg/kg administered three times) did it give?
Its value is 1.0 fold induction.

Which results are given for `NN` [Hydrazine]?
PCR Gadd45 (Gadd45; [12]): 1.1 fold induction; PCR Gadd45 (Gadd45; [13]): 9.9 fold induction; PCR Gadd45 (Gadd45; [14]): 0.2 fold induction; PCR Gadd45 (Gadd45; [15]): 1.0 fold induction; PCR Gadd45 (Gadd45; [16]): 1.8 fold induction; PCR Gadd45 (Gadd45; [17]): 1.0 fold induction; PCR PEG3 (PEG3; [12]): 3.4 fold induction; PCR PEG3 (PEG3; [13]): 6.3 fold induction; PCR PEG3 (PEG3; [14]): 2.1 fold induction; PCR PEG3 (PEG3; [15]): 20.4 fold induction; PCR PEG3 (PEG3; [16]): 3.8 fold induction; PCR PEG3 (PEG3; [17]): 11.9 fold induction; PCR Gadd153 (Gadd153; [12]): 2.2 fold induction; PCR Gadd153 (Gadd153; [13]): 4.0 fold induction; PCR Gadd153 (Gadd153; [14]): 0.4 fold induction; PCR Gadd153 (Gadd153; [15]): 1.0 fold induction; PCR Gadd153 (Gadd153; [16]): 0.9 fold induction; PCR Gadd153 (Gadd153; [17]): 1.7 fold induction; induction of genes from the GADD family, namely GADD-45, GADD-153 and PEG-3 [2]: induction

`Nc1ccc(S(=O)(=O)c2cc(Br)nc(N3CCCC3)c2)cc1` [Ro66-0074, 4-(2-Bromo-6-pyrrolidin-1-yl-pyridine-4-sulfonyl)-phenylamine] was tested. Which “CYP2B2 RT-PCR” value (CYP2B2 [3]; 360 min) did it give?
Its value is 8.4.

And the “CYP2B2 RT-PCR” value (CYP2B2 [3]; 1440 min)?
Its value is 1.3.

And the “expression levels of few marker genes (RT-PCR, Fig. 10)” value (marker genes [4])?
Its value is “slight induction”.

And the “CYP2B2 Affymetrix” value (CYP2B2 [5]; 360 min)?
Its value is -1.2.

And the “CYP2B2 Affymetrix” value (CYP2B2 [5]; 1440 min)?
Its value is 1.1.

What about the “AH-R RT-PCR” value (AH-R [6]; 360 min) of the same molecule?
The value was 1.7.

And the “AH-R RT-PCR” value (AH-R [6]; 1440 min)?
Its value is 1.2.

What about the “PC3 (BTG2) Affymetrix” value (PC3 (BTG2); 360 min) of the same molecule?
The value was 0.4.

And the “PC3 (BTG2) Affymetrix” value (PC3 (BTG2); 1440 min)?
Its value is 0.6.

What about the “AH-R Affymetrix” value (AH-R [7]; 360 min) of the same molecule?
The value was 1.0.

What about the “AH-R Affymetrix” value (AH-R [7]; 1440 min) of the same molecule?
Its value is 1.0.

`CC(=N)S` [Thioacetamide] was tested. Which “PCR Gadd45” value (Gadd45; 2 mg/kg, sampling time 6 hours) did it give?
Its value is 8.1 fold induction.

And the “PCR Gadd45” value (Gadd45; [18])?
The value was 0.0 fold induction.

And the “PCR Gadd45” value (Gadd45; [13])?
The value was 2.9 fold induction.

What about the “PCR Gadd45” value (Gadd45; [14]) of the same molecule?
The value was 1.7 fold induction.

What about the “PCR Gadd45” value (Gadd45; [19]) of the same molecule?
The value was 27.6 fold induction.

What about the “PCR PEG3” value (PEG3; 2 mg/kg, sampling time 6 hours) of the same molecule?
The value was 2.0 fold induction.

And the “PCR PEG3” value (PEG3; [18])?
Its value is 0.9 fold induction.

And the “PCR PEG3” value (PEG3; [13])?
The value was 1.9 fold induction.

What about the “PCR PEG3” value (PEG3; [14]) of the same molecule?
Its value is 0.5 fold induction.

And the “PCR PEG3” value (PEG3; [19])?
Its value is 7.8 fold induction.

And the “PCR Gadd153” value (Gadd153; 2 mg/kg, sampling time 6 hours)?
The value was 0.9 fold induction.

What about the “PCR Gadd153” value (Gadd153; [18]) of the same molecule?
The value was 0.0 fold induction.

What about the “PCR Gadd153” value (Gadd153; [13]) of the same molecule?
The value was 1.3 fold induction.

And the “PCR Gadd153” value (Gadd153; [14])?
Its value is 0.9 fold induction.

What about the “PCR Gadd153” value (Gadd153; [19]) of the same molecule?
Its value is 2.5 fold induction.

What about the “induction of genes from the GADD family, namely GADD-45, GADD-153 and PEG-3” value [2] of the same molecule?
Its value is “induction”.

Which “PCR EGR-1” value (EGR-1; 300 mg/kg administered three times) does the source give for `Cc1ccc(C(=O)c2cc(O)c(O)c([N+](=O)[O-])c2)cc1` [Tolcapone (Tasmar), Tolcapone] here?
Its value is 17.6 fold induction.

And the “induction of EGR1” value (EGR1; high dose 300 mg/kg)?
Its value is “slight induction”.

`O=C(O)CCCCCCNC1c2ccccc2CCc2ccccc21` [amineptine] was tested. Which “classification by support vector machines (identification of compound class)” value [1] did it give?
Its value is “steatotic compound”.

How did the “expression levels of few marker genes (RT-PCR, Fig. 10)” value (marker genes [8]) turn out when “(4-Amino-N-(6-bromo-1 H -indol-4-yl)-benzenesulfonamide [Ro65-7199]” was run?
Its value is “larger effect”.

And the “induction of CYP2B (hepatic protein levels, Western blot)” value (CYP2B; 6 hours after administration)?
The value was “could not be detected”.

What about the “protein levels of CYP2B (Western blot)” value (CYP2B; 24 hours and 7 days after treatment) of the same molecule?
Its value is “closely paralleled the amounts of mRNA”.
